In patent US20190046536A1, “Combination Therapy” (Eli Lilly and Company, priority 2016, published 2019):

Experiment: Stability of the crystal form
Assay type: physicochemical
Details: room temperature and relative humidity greater than about 15%

- crystal form stability: stable crystal form
SMILES: COc1cnc(C(=O)Nc2ccc(F)c([C@]34CN(c5ncc(F)cn5)C[C@H]3CSC(N)=N4)c2)cn1 [Example 2, N-[3-[(4aR,7aS)-2-Amino-6-(5-fluoropyrimidin-2-yl)-4,4a, 5,7-tetrahydropyrrolo[3,4-d][1,3]thiazin-7a-yl]-4-fluoro-phenyl]-5-methoxy-pyrazine-2-carboxamide]
